Measurements as given in patent publication US4689326A, “Process for controlling hyperlipidemia” (Research Corporation, priority 1985, dated 1987).

Experiments:
[1] = biological target: T1, Fatty Acid Synthetase (Mus musculus, UniProt P19096); assay: In vitro enzyme activity, liver homogenate: fatty acid synthetase; format: biochemical, CF1 male mouse; conditions: ± SD, N = 6, read-out: Percent Control, in vitro enzyme activity
T1 construct: 10% homogenates of CF1 male mouse liver; from tissue; host or cells: CF1 male mouse liver, 10% homogenate
T1 sequence (P19096 whole entry): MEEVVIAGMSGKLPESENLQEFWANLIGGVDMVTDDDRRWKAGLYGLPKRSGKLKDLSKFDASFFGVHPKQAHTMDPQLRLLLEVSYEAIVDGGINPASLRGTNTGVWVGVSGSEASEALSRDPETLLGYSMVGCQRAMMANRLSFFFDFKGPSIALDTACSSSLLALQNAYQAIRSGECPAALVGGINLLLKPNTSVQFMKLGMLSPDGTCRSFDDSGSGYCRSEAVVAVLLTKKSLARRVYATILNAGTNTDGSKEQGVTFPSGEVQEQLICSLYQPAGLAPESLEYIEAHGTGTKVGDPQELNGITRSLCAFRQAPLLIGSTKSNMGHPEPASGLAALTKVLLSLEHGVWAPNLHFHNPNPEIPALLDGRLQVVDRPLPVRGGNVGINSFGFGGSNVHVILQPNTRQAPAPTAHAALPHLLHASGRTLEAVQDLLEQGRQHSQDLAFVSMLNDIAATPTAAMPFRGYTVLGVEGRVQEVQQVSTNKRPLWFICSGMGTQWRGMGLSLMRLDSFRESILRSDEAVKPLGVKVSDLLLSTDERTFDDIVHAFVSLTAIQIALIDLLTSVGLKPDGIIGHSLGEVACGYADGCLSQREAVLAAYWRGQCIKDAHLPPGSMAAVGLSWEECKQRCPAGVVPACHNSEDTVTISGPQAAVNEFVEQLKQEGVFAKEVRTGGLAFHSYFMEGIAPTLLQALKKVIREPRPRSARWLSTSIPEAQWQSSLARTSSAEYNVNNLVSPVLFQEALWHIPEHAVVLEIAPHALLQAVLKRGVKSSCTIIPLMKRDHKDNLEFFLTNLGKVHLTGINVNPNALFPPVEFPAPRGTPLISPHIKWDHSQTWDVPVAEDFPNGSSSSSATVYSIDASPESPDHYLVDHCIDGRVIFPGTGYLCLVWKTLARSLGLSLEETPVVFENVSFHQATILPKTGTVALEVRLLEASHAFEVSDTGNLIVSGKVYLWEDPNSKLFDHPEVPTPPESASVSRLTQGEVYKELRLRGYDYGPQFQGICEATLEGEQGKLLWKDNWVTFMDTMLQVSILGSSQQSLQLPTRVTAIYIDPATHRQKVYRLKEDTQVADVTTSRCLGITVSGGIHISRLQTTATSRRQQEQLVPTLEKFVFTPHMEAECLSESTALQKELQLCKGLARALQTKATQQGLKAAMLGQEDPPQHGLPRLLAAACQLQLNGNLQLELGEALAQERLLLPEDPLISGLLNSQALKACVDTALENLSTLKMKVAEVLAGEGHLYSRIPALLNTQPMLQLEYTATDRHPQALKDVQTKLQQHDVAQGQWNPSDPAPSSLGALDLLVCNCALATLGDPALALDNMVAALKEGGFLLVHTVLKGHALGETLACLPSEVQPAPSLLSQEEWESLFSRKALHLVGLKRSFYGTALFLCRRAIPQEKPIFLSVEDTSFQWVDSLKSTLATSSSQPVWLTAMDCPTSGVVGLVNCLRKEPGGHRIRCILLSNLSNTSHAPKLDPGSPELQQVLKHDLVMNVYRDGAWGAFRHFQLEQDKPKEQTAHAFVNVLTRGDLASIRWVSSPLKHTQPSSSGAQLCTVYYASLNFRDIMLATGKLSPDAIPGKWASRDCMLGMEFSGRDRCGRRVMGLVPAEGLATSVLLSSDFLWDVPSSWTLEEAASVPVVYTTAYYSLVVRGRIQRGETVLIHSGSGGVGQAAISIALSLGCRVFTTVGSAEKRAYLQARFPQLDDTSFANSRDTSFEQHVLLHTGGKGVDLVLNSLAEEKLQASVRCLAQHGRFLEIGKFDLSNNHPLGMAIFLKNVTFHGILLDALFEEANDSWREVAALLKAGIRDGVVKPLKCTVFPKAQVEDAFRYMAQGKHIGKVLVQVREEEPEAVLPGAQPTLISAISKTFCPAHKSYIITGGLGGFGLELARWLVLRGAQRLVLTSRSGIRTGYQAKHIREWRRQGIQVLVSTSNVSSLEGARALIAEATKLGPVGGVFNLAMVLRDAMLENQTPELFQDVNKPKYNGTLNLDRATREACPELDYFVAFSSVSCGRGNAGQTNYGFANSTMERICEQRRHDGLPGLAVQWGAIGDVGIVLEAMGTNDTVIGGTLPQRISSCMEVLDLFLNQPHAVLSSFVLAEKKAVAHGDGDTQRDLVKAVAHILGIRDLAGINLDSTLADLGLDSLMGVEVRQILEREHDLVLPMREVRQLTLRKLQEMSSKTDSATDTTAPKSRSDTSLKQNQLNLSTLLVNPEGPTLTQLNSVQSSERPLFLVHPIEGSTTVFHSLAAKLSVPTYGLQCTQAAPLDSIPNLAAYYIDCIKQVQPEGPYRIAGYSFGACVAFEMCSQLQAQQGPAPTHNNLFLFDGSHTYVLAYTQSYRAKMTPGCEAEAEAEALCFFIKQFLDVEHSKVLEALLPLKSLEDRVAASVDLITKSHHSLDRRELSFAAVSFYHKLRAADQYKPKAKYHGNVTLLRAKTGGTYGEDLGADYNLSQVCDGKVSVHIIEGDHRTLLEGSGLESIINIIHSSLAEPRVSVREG
Protocol: (§1) In vitro enzymatic studies were undertaken using 10% homogenates of CF1 male mouse liver with […] of compound 3,4,5,6-dibenzohomopiperidine. In addition, in vivo enzymatic studies were performed, again using 10% liver homogenates (prepared in 0.25 M sucrose plus 0.001 M (ethylenedinitrilo)-tetraacetic acid, ph 7.25 from CF1 male mice obtained after administering 3,4,5,6-dibenzohomopiperidine for 16 days at a concentration ranging from 10 to 60 mg/kg/day, intraperitoneally.
(§2) The following enzyme activities were determined by following standard literature procedures: acetyl coenzyme synthetase; adenosine triphosphate dependent citrate lyase; mitochondrial citrate exchange; cholesterol/7 hydroxylase; 3-hydroxy-3-methyl-glutaryl coenzyme A reductase; acetyl coenzyme A carboxylase activity; fatty acid synthetase activity; sn-glycerol-3-phosphate acyl transferase activity; phosphatidate phosphohydrolase activity; cholesterol acyl transferase; and heparin activated hepatic lypoprotein lipase. Protein was determined for all enzyme assays by the Lowry et al. technique (J. Biol. Chem, 193, 265 (1951)).

[2] = test system: liver, small intestine and fecal materials; assay: Lipid Extraction Studies in Mice, Example 10; format: in vivo, CF1 male mice; conditions: ± SD
Protocol: The CF1 male mice that had been administered compound 3,4,5,6-dibenzohomopiperidine at four dosage levels as well as the control mice, were sacrificed and the liver, small intestine and fecal materials (24 hour collection) were removed, extracted and analyzed for cholesterol level, triglycerides level, neutral lipid content and phospholipid content. Table 8 reports the decrease in measured levels of these concentrations as a percentage of the level in the control. The control, it is noted, is always 100%.

[3] = test system: Mitochondrial Citrate Exchange; assay: In vitro enzyme activity, liver homogenate: mitochondrial citrate exchange; format: biochemical, CF1 male mouse; conditions: ± SD, N = 6
Protocol: as §1, §2

[4] = test system: sn-Glycerol-3-Phosphate Acyl Transferase; assay: In vitro enzyme activity, liver homogenate: sn-glycerol-3-phosphate acyl transferase; format: biochemical, CF1 male mouse; conditions: ± SD, N = 6
Protocol: as §1, §2

[5] = test system: sn-Glycerol-3-Phosphate Acyl Transferase; assay: In vivo enzyme activity, liver of treated mice: sn-glycerol-3-phosphate acyl transferase; set-up: species or system CF1 male mice; conditions: 16 days, ± SD
Protocol: as §1, §2

[6] = test system: Acetyl CoA Carboxylase; assay: In vivo enzyme activity, liver of treated mice: acetyl CoA carboxylase; set-up: species or system CF1 male mice; conditions: 16 days, ± SD
Protocol: as §1, §2

[7] = test system: serum cholesterol; assay: Testing of Normal Rats: serum cholesterol, Example 8; format: in vivo, Sprague Dawley male rats; conditions: oral 20 mg/kg/day
Protocol: In Example 8 a set of six Sprague Dawley male rats, each weighing approximately 350 grams, were orally treated with a concentration of 20 mg per kilogram of rat weight per day, again suspended in a 1% aqueous solution of CMC. The dosage was applied orally by an intubation needle. On days 9 and 16 serum cholesterol and serum triglycerides blood levels of the rats were measured utilizing th procedure of Example 7.
A control group of six similar Sprague Dawley male rats were untreated but tested on Days 9 and 16 in accordance with the tests administered to the treated rats. Table 6 reports the percent control based on the decrease in serum cholesterol and serum triglycerides of the treated rats compared to the levels measured in the untreated control group.

[8] = test system: Phosphatidate Phosphohydrolase; assay: In vivo enzyme activity, liver of treated mice: phosphatidate phosphohydrolase; set-up: species or system CF1 male mice; conditions: 16 days, ± SD
Protocol: as §1, §2

[9] = test system: Acetyl CoA Synthetase; assay: In vivo enzyme activity, liver of treated mice: acetyl CoA synthetase; set-up: species or system CF1 male mice; conditions: 16 days, ± SD
Protocol: as §1, §2

[10] = biological target: T2, Cholesterol-7 Hydroxylase (Mus musculus, UniProt Q64505); assay: In vitro enzyme activity, liver homogenate: cholesterol-7 hydroxylase; format: biochemical, CF1 male mouse; conditions: ± SD, N = 6, read-out: Percent Control, in vitro enzyme activity
T2 construct: 10% homogenates of CF1 male mouse liver; from tissue; host or cells: CF1 male mouse liver, 10% homogenate
T2 sequence (Q64505 whole entry): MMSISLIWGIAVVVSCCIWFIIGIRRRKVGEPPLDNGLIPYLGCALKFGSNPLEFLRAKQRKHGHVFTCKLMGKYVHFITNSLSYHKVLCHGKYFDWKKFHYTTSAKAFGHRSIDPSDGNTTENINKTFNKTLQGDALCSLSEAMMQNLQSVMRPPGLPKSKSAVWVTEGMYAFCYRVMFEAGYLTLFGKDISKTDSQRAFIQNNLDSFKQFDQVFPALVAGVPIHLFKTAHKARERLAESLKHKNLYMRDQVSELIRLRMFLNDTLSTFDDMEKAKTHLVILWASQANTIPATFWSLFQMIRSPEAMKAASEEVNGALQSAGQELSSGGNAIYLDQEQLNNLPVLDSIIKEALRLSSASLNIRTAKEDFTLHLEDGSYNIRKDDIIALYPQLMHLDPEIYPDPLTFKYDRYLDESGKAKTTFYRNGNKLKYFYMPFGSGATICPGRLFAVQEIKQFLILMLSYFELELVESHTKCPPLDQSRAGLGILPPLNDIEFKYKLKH
Protocol: as §1, §2

[11] = test system: Feces; assay: Lipid Extraction Studies in Rats, Example 11: feces; format: in vivo, Sprague Dawley male rats; conditions: oral 20 mg/kg/day, fourteen days, ± SD

## c1ccc2c(c1)CNCc1ccccc1-2 [Compound 3, 3,4,5,6-dibenzohomopiperidine]
[1]; 50 μM
  remaining activity at 50 µM: 91 ± 7%
[1]; 100 μM
  remaining activity at 100 µM: 92 ± 8%
[1]; 200 μM
  remaining activity at 200 µM: 101 ± 9%
[2]; 20 mg/kg
  Cholesterol, concentration as a function of control: 55 ± 5%
  Lipid wt, concentration as a function of control: 62 ± 6%
  Neutral lipid, concentration as a function of control: 50 ± 5%
  Phospholipid, concentration as a function of control: 100 ± 7%
  Protein, concentration as a function of control: 95 ± 8%
  Triglyceride, concentration as a function of control: 37 ± 4%
[2]; 40 mg/kg
  Cholesterol, concentration as a function of control: 114 ± 8%
  Lipid wt, concentration as a function of control: 112 ± 9%
  Neutral lipid, concentration as a function of control: 95 ± 6%
  Phospholipid, concentration as a function of control: 84 ± 7%
  Protein, concentration as a function of control: 103 ± 7%
  Triglyceride, concentration as a function of control: 70 ± 5%
[2]; 60 mg/kg
  Cholesterol, concentration as a function of control: 99 ± 5%
  Lipid wt, concentration as a function of control: 106 ± 8%
  Neutral lipid, concentration as a function of control: 90 ± 6%
  Phospholipid, concentration as a function of control: 91 ± 8%
  Protein, concentration as a function of control: 104 ± 8%
  Triglyceride, concentration as a function of control: 74 ± 6%
[2]; 10 g/kg (so in the source)
  Cholesterol, concentration as a function of control: 83 ± 6%
  Lipid wt, concentration as a function of control: 92 ± 7%
  Neutral lipid, concentration as a function of control: 75 ± 6%
  Phospholipid, concentration as a function of control: 78 ± 6%
  Protein, concentration as a function of control: 98 ± 9%
  Triglyceride, concentration as a function of control: 48 ± 4%
[3]; 50 μM
  Percent Control, in vitro enzyme activity: 99 ± 6%
[3]; 100 μM
  Percent Control, in vitro enzyme activity: 97 ± 5%
[3]; 200 μM
  Percent Control, in vitro enzyme activity: 99 ± 7%
[4]; 50 μM
  Percent Control, in vitro enzyme activity: 35 ± 6%
[4]; 100 μM
  Percent Control, in vitro enzyme activity: 34 ± 5%
[4]; 200 μM
  Percent Control, in vitro enzyme activity: 51 ± 4%
[5]; 10 mg/kg/day ip
  Percent Control, in vivo enzyme activity: 45 ± 7%
[5]; 20 mg/kg/day ip
  Percent Control, in vivo enzyme activity: 68 ± 8%
[5]; 40 mg/kg/day ip
  Percent Control, in vivo enzyme activity: 62 ± 6%
[5]; 60 mg/kg/day ip
  Percent Control, in vivo enzyme activity: 81 ± 6%
[6]; 10 mg/kg/day ip
  Percent Control, in vivo enzyme activity: 54 ± 6%
[6]; 20 mg/kg/day ip
  Percent Control, in vivo enzyme activity: 57 ± 7%
[6]; 40 mg/kg/day ip
  Percent Control, in vivo enzyme activity: 47 ± 5%
[6]; 60 mg/kg/day ip
  Percent Control, in vivo enzyme activity: 60 ± 4%
[7]; day 9, ± SD
  % Control Serum Cholesterol Day 9: 75 ± 5%
[7]; day 16, ± SD
  % Control Serum Cholesterol Day 16: 64 ± 3%
[8]; 10 mg/kg/day ip
  Percent Control, in vivo enzyme activity: 51 ± 4%
[8]; 20 mg/kg/day ip
  Percent Control, in vivo enzyme activity: 47 ± 9%
[8]; 40 mg/kg/day ip
  Percent Control, in vivo enzyme activity: 81 ± 6%
[8]; 60 mg/kg/day ip
  Percent Control, in vivo enzyme activity: 100 ± 6%
[9]; 10 mg/kg/day ip
  Percent Control, in vivo enzyme activity: 64 ± 6%
[9]; 20 mg/kg/day ip
  Percent Control, in vivo enzyme activity: 95 ± 6%
[9]; 40 mg/kg/day ip
  Percent Control, in vivo enzyme activity: 103 ± 8%
[9]; 60 mg/kg/day ip
  Percent Control, in vivo enzyme activity: 81 ± 6%
[10]; 50 μM
  remaining activity at 50 µM: 68 ± 7%
[10]; 100 μM
  remaining activity at 100 µM: 72 ± 5%
[10]; 200 μM
  remaining activity at 200 µM: 98 ± 7%
[11]
  Cholesterol, concentration as a function of control: 103 ± 7%
  Mg Lipid Wt, concentration as a function of control: 102 ± 8%
  Neutral Lipids, concentration as a function of control: 108 ± 9%
  Phospholipids, concentration as a function of control: 108 ± 10%
  Protein, concentration as a function of control: 133 ± 8%
  Triglycerides, concentration as a function of control: 99 ± 7%
